One assay addresses human D3R (Homo sapiens (Human), UniProt P35462). The assay can be described thus: Radioligand competition binding, [3H]N-methylspiperone, HEK293 membranes expressing human D3R. As to conditions: for D2/D3 / Ki: Table 1C; for D2/D3: ratio of Ki values; for Ki: read-out: D3R Ki ± SEM. The method, then: (§1) Binding at dopamine D2-like receptors was determined using previously described methods. […] Upon reaching 80-90% confluence, cells were harvested using pre-mixed Earle's Balanced Salt Solution (EBSS) with […] EDTA (Life Technologies) and centrifuged at 3000 rpm for 10 min at 21° C. The supernatant was removed and the pellet was resuspended in 10 mL hypotonic lysis buffer (5 mM MgCl2.6H2O, 5 mM Tris, pH 7.4 at 4° C.) and centrifuged at 20,000 rpm for 30 min at 4° C. The pellet was then resuspended in fresh EBSS buffer made from 8.7 g/L Earle's Balanced Salts without phenol red (US Biological, Salem, Mass.), 2.2 g/L sodium bicarbonate, pH to 7.4. A Bradford protein assay (Bio-Rad, Hercules, Calif.) was used to determine the protein concentration and membranes were diluted to 500 μg/mL and stored in a −80° C. freezer for later use.
(§2) Radioligand competition binding experiments were conducted using thawed membranes. Test compounds were freshly dissolved in 30% DMSO and 70% H2O to a stock concentration of 100 μM. To assist the solubilization of free-base compounds, 10 μl of glacial acetic acid was added along with the DMSO. Each test compound was then diluted into 13 half-log serial dilutions using 30% DMSO vehicle; final test concentrations ranged from 10 μM to 10 pM. Previously frozen membranes were diluted in fresh EBSS to a 100 μg/mL (for hD2R or hD3R) or 200 μg/mL (hD4R) stock for binding. […] buffer with 0.2 mM sodium metabisulfite, 50 μl of diluted test compound, 100 μl of membranes (10 μg total protein for hD2R or hD3R, 20 μg total protein for hD4R), and 50 μl of [^3H]N-methylspiperone (0.4 nM final concentration; Perkin Elmer). Nonspecific binding was determined using 10 μM butaclamol (Sigma-Aldrich, St. Louis, Mo.) and total binding was determined with 30% DMSO vehicle. All compound dilutions were tested in triplicate and the reaction incubated for one hour at room temperature. The reaction was terminated by filtration through Whatman GF/B filters, presoaked for one hour in 0.5% polyethylenimine, using a Brandel R48 filtering manifold (Brandel Instruments, Gaithersburg, Md.). The filters were washed 3 times with 3 mL of ice cold EBSS buffer and transferred to scintillation vials. […] IC50 values for each compound were determined from dose-response curves and Ki values were calculated using the Cheng-Prusoff equation; these analyses were performed using GraphPad Prism version 5.00 for Windows (GraphPad Software, San Diego, Calif.). Reported Ki values were determined from least three independent experiments.
(§3) The binding affinities of the compounds were evaluated by performing competition binding studies with [^3H]N-methylspiperone using membranes prepared from HEK293 cells expressing either the human D2R or D3R.

For a further assay, the target named is human D2R (Homo sapiens (Human), UniProt P14416). Put plainly: Radioligand competition binding, [3H]N-methylspiperone, HEK293 membranes expressing human D2R. The conditions noted are these: Table 1C; read-out: D2R Ki ± SEM. The method, then: as §1, §2, §3
Chain of human D2R (P14416 whole entry): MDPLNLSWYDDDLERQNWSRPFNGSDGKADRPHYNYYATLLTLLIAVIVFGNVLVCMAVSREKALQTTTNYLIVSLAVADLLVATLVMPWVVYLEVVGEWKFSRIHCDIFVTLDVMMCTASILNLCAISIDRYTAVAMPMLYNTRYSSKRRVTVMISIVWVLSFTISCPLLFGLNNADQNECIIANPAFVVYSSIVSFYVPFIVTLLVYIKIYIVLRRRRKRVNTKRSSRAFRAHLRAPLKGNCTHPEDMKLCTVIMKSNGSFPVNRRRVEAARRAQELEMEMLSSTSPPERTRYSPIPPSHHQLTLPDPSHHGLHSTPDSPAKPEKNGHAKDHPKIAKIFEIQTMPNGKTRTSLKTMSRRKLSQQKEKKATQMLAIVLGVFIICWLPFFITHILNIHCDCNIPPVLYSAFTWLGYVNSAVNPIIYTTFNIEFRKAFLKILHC

As a reminder, the Ki is the dissociation constant of the complex between target and ligand, obtained from inhibition or displacement.

Chain of human D3R (P35462 whole entry): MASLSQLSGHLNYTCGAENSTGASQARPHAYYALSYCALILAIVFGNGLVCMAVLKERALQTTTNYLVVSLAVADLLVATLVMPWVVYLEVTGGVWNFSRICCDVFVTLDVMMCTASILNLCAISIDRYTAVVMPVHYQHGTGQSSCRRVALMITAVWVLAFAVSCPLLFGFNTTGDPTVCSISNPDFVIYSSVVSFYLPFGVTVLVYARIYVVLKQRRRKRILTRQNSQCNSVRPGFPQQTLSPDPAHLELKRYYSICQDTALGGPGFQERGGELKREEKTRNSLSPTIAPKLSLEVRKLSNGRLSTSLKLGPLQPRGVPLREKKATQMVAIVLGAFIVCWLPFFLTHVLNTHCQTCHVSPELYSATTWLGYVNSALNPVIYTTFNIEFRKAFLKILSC

Consider `CCc1cc(Cl)c(OC)c(N2CCN(CC(O)CCNC(=O)c3ccc4c(c3)OCO4)CC2)c1` (stereo not shown) [Compound 113a, N-(4-(4-(3-Chloro-5-ethyl-2-methoxyphenyl)piperazin-1-yl)-3-hydroxybutyl)benzo[d][1,3]dioxole-5-carboxamide], for which, on human D3R, the D2/D3 worked out at 15 and the Ki was 24.5 ± 4.44 nM. On human D2R, the Ki worked out at 364 ± 101 nM.

With `CCc1cccc(N2CCN(CC(O)CCNC(=O)c3ccc4c(c3)OCO4)CC2)c1Cl` (stereo not shown) [Compound 113b, N-(4-(4-(2-Chloro-3-ethylphenyl)piperazin-1-yl)-3-hydroxybutyl)benzo[d 1,3]dioxole-5-carboxamide], at human D3R, the D2/D3 turned out to be 140 and the inhibition constant Ki was 3.02 ± 0.742 nM. The Ki on human D2R is 424 ± 79.9 nM.

As for `CCc1cc2c(cc1N1CCN(CC(O)CCNC(=O)c3cc4ccccc4o3)CC1)OCO2` (stereo not shown) [Compound 122, N-(4-(4-(6-Ethylbenzo[d][1,3]dioxol-5-yl)piperazin-1-yl)-3-hydroxybutyl)benzofuran-2-carboxamide], on human D3R, the D2/D3 was 61 and the Ki came out at 23.6 ± 7.35 nM. Besides, the Ki at human D2R turned out to be 1440 ± 48.8 nM.

As to `CCc1cccc(N2CCN(C[C@H](F)CCNC(=O)c3cc4ccccc4[nH]3)CC2)c1Cl` [(R)-C5a, (R)-N-(4-(4-(2-chloro-3-ethylphenyl)piperazin-1-yl)-3-fluorobutyl)-1H-indole-2-carboxamide], at human D3R, the “D3R selectivity over D2R (D2R/D3R)” value was 215 fold, the D2/D3 is listed as 215 and the Ki was 0.373 nM. For the same compound, the Ki at human D2R was 80.2 ± 13.8 nM.

Regarding `CCc1cccc(N2CCN(C[C@@H](F)CCNC(=O)c3cc4ccccc4[nH]3)CC2)c1Cl` [(S)-C5a, (S)-N-(4-(4-(2-chloro-3-ethylphenyl)piperazin-1-yl)-3-fluorobutyl)-1H-indole-2-carboxamide], on human D3R, the “D3R selectivity over D2R (D2R/D3R)” value is on record as more than 1000 fold, the D2/D3 was 1060 and the Ki is 0.84 nM. The Ki at human D2R came out at 891 ± 305 nM.

For the compound `CCc1cc(Cl)c(OC)c(N2CCN(C[C@H](F)CCNC(=O)c3cc4ccccc4[nH]3)CC2)c1` [(R)-C4a, (R)-N-(4-(4-(3-chloro-5-ethyl-2-methoxyphenyl)piperazin-1-yl)-3-fluorobutyl)-1H-indole-2-carboxamide], on human D3R, the “D3R selectivity over D2R (D2R/D3R)” value worked out at 1650 fold, the D2/D3 came to 1646 and the Ki turned out to be 13 ± 2.94 nM. Besides, on human D2R, the Ki came to 21400 ± 1500 nM.

Turning to `CCc1cc(Cl)c(OC)c(N2CCN(C[C@@H](F)CCNC(=O)c3cc4ccccc4[nH]3)CC2)c1` [(S)-C4a, (S)-N-(4-(4-(3-chloro-5-ethyl-2-methoxyphenyl)piperazin-1-yl)-3-fluorobutyl)-1H-indole-2-carboxamidec], at human D3R, the “D3R selectivity over D2R (D2R/D3R)” value was determined as 535 fold, the D2/D3 was determined as 535 and the Ki amounted to 35.3 nM. The Ki at human D2R is 18900 ± 2720 nM.
